Consider two compounds from patent US20260055154A1, “LONG-ACTING DUAL-AGONIST COMPOUND” (CHENGDU AODA BIOTECHNOLOGY CO., LTD, priority 2022, published 2026).

Read-outs that look alike come from different tables or passages of the source. Starred links: 1 amine or outer side, 2 acyl side, 3 side chain; linkers in the order of their positions; H or OH if unused. Non-standard residues stand in square brackets, D forms with d. Residues, ends and D or L forms follow the SMILES beside them. Groups on a side chain read outwards from the residue. No end group written: not given here. *: point of attachment. X1 = O=C(O)CCCCCCCCCCCCCCCCCCC(=O)N[C@@H](CCC(=O)NCCOCCOCCOCCOCCOCC(=O)*)C(=O)O; C20 diacid = O=C(O)CCCCCCCCCCCCCCCCCCC(=O)*; γGlu = O=C(O)[C@H](CCC(=O)[*:2])N[*:1]; AEEA = NCCOCCOCC(=O)O; Aib = CC(C)(N)C(=O)O

For data set [1] the following is noted: human, in vivo; cited from earlier work.
In data set [2] the target is T1, GcgR (Homo sapiens, UniProt P47871).
T1 construct: expressed in transfected cells; host or cells: CHO-K1
T1 sequence (P47871 26-477, species assumed): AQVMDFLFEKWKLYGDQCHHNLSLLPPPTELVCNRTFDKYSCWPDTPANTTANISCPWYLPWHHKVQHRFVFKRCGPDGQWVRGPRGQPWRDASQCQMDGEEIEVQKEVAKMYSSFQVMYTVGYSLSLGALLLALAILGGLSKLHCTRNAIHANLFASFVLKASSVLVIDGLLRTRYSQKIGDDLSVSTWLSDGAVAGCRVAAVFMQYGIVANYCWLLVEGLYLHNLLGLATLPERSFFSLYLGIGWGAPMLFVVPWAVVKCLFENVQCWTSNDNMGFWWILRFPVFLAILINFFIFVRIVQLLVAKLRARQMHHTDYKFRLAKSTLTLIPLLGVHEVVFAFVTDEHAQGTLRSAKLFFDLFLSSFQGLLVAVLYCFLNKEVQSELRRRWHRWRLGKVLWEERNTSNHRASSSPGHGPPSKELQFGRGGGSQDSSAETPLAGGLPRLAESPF
Kind of data set: Gcg activity determination (cAMP, chemiluminescence, stable cell line). The format is cell-based. The conditions noted are these: CHO-K1 cell line stably expressing GcgR; OXM3 as reference. Here is the method:
(§1) GcgR activates the intracellular adenylate cyclase pathway under the stimulation of its specific agonist, to increase the cAMP level and ultimately lead to the production and release of insulin. The stably cell line expressing GcgR was stimulated by the test substance to rapidly increase the intracellular cAMP level. The relative light units (RLU) in the cells after the stimulation by each dose of agonists were determined by the chemiluminescence method, and then the EC50 of the agonist was calculated. This activity determination method is currently a common determination method for Geg receptor agonist activity at home and abroad.
A CHO-K1 cell line stably expressing GcgR was adopted. The cells were stimulated with different concentrations of agonists, and the relative light units (RLU) after the stimulation of cells by each dose of agonists were determined. Using OXM3 as a reference, the relative biological activity of the agonist was obtained.

Data set [3] in a line: in vivo. The conditions noted are these: human.
Data set [4] is described as follows: in vivo. On the set-up: species or system cynomolgus monkeys. The conditions noted are these: male, cynomolgus monkey, sc, 0.2 mg/kg. Here is the method:
The experimental animals were cynomolgus monkeys, and two male cynomolgus monkeys in each group were subcutaneously administrated the compound at a dose of 0.2 mg/kg. The venous blood samples were collected before drug administration (0 h), and 1 h, 2 h, 3 h, 4 h, 8 h, 12 h, 18 h, 24 h, 48 h, 96 h, 144 h and 168 h after administration, respectively. The plasma samples were separated by centrifugation. The blood drug concentrations of the corresponding compounds in the plasma samples were determined by liquid chromatography-mass spectrometry.

Data set [5] deals with T2, GLP-1R (Homo sapiens, UniProt P43220).
T2 construct: expressed in transfected cells; host or cells: CHO-K1
T2 sequence (P43220 24-463, species assumed): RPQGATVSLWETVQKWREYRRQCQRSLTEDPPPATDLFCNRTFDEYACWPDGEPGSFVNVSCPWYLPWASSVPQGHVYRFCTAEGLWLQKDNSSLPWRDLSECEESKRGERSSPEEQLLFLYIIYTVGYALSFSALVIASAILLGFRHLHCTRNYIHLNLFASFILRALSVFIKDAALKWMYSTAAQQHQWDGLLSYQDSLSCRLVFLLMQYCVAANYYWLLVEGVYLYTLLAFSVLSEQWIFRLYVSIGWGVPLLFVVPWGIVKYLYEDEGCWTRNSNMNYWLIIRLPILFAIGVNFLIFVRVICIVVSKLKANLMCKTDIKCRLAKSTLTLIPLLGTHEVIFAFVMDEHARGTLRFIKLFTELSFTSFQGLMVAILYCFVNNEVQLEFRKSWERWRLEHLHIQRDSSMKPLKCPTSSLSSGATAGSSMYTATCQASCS
In words: Determination of GLP-1 activity (cAMP, chemiluminescence, stable cell line). The format is cell-based. The conditions noted are these: CHO-K1 cell line stably expressing GLP-1R; OXM3 as reference substance. How it is done: as §1, with “GLP-1R” for “GcgR”, “stable” for “stably”, “after” for “after the”, “the test substance” for “agonists”, “GLP-1” for “Geg”
A CHO-K1 cell line that stably expresses GLP-IR was adopted, and the cells were stimulated with different concentrations of agonists. The relative light units after stimulation of the cells by each dose of agonists were measured. Using OXM3 as a reference substance, the relative biological activity of each agonist was obtained.

Consider “His-Aib-Gln-Gly-Thr-Phe-Thr-Ser-Asp-Tyr-Ser-Lys-Tyr-Leu-Asp-Glu-Lys-Lys-Ala-Lys(AEEA-AEEA-γGlu-eicosanedioic acid)-Glu-Phe-Val-Glu-Trp-Leu-Leu-Glu-Gly-Gly-Pro-Ser-Ser-Gly-NH2 (H[Aib]QGTFTSDYSKYLDEKKAK([AEEA-AEEA-γGlu-C20 diacid])EFVEWLLEGGPSSG-NH2) [OXM3]”, for which the half-life in data set [1] was 120 h.
In the case of `CC(C)C[C@H](NC(=O)[C@H](CC(C)C)NC(=O)[C@H](Cc1c[nH]c2ccccc12)NC(=O)[C@H](CCC(=O)O)NC(=O)[C@@H](NC(=O)[C@H](Cc1ccccc1)NC(=O)[C@H](CCC(=O)O)NC(=O)[C@H](CCCCNC(=O)COCCOCCOCCOCCOCCNC(=O)CC[C@H](NC(=O)CCCCCCCCCCCCCCCCCCC(=O)O)C(=O)O)NC(=O)[C@H](C)NC(=O)[C@H](CCCCN)NC(=O)[C@H](CCCCN)NC(=O)[C@H](CCC(=O)O)NC(=O)[C@H](CC(=O)O)NC(=O)[C@H](CC(C)C)NC(=O)[C@H](Cc1ccc(O)cc1)NC(=O)[C@H](CCCCN)NC(=O)[C@H](CO)NC(=O)[C@H](Cc1ccc(O)cc1)NC(=O)[C@H](CC(=O)O)NC(=O)[C@H](CO)NC(=O)[C@@H](NC(=O)[C@H](Cc1ccccc1)NC(=O)[C@@H](NC(=O)CNC(=O)[C@H](CCC(N)=O)NC(=O)C(C)(C)NC(=O)[C@@H](N)Cc1c[nH]cn1)[C@@H](C)O)[C@@H](C)O)C(C)C)C(=O)N[C@@H](CCC(=O)O)C(=O)NCC(=O)NCC(=O)N1CCC[C@H]1C(=O)N[C@@H](CO)C(=O)N[C@@H](CO)C(=O)NCC(=O)N[C@@H](C)C(=O)N1CCC[C@H]1C(=O)N1CCC[C@H]1C(=O)N1CCC[C@H]1C(=O)N[C@@H](CO)C(N)=O` [Compound 2, His-Aib-Gln-Gly-Thr-Phe-Thr-Ser-Asp-Tyr-Ser-Lys-Tyr-Leu-Asp-Glu-Lys-Lys-Ala-Lys(PEG5CH2CO-γGlu-eicosanedioic acid)-Glu-Phe-Val-Glu-Trp-Leu-Leu-Glu-Gly-Gly-Pro-Ser-Ser-Gly-Ala-Pro-Pro-Pro-Ser-NH2] (H-H[Aib]QGTFTSDYSKYLDEKKAK(X1)EFVEWLLEGGPSSGAPPPS-NH2), in data set [2], the “Biological activity (%)” value is recorded as 86.9%. The results for the half-life in data set [3] and in data set [4] were roughly 280 h and 140 h, respectively. For the same compound, the Relative biological activity in data set [5] turned out to be 259.9%.
